The values that follow come from US8623870B2, “Pyridazinone derivatives” (Merck Patent GmbH, priority 2009, dated 2014).

Molecules are shown by their SMILES.

Assay [1] addresses T1, Met kinase (Homo sapiens, UniProt P08581). Briefly: Met kinase inhibition (cell). The class given is cell-based.
Target sequence in this assay (P08581 25-1390): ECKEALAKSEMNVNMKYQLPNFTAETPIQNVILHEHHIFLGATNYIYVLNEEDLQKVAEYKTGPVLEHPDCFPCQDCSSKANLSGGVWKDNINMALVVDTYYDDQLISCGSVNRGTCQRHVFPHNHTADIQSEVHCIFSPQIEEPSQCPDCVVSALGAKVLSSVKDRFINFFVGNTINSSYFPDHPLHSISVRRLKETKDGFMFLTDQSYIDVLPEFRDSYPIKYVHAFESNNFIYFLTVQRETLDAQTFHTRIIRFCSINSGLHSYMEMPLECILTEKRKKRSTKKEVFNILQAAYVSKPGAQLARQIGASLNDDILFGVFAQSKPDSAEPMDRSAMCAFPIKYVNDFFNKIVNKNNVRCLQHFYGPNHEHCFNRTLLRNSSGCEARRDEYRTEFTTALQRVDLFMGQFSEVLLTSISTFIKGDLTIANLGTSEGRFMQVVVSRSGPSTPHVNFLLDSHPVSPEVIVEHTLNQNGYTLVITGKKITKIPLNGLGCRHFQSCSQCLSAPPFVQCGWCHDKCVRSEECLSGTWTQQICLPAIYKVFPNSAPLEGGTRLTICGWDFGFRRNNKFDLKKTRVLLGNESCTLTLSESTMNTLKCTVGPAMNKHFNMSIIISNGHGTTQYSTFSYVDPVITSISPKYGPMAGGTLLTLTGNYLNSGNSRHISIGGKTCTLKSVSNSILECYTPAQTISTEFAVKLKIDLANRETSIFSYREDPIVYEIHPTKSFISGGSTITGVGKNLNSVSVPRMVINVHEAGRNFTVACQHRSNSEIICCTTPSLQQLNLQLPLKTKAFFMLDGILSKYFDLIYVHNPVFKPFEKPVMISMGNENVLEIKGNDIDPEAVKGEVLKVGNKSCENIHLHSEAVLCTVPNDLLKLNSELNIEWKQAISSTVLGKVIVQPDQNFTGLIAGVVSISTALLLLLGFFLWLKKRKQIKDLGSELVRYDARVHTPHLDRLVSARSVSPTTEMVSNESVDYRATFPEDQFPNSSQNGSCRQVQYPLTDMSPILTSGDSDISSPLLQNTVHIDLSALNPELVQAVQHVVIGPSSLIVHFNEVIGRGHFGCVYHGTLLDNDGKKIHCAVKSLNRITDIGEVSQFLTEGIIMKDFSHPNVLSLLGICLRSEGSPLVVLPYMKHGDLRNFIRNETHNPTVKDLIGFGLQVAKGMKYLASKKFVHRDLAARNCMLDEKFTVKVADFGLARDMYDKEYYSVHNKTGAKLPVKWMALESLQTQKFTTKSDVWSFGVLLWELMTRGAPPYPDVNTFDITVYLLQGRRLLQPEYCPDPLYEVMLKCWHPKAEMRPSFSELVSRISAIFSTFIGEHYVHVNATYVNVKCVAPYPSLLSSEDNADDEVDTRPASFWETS
Assay [2] concerns the target T1, Met kinase. Put plainly: Met kinase inhibition, flashplate method (enzyme). Set-up: 6His (N); purchased Upstate 14-526; host or cells: Sf21 insect cells (S. frugiperda), baculovirus. Format: biochemical. An excerpt:
According to the manufacturer's data (Met, active, upstate, catalogue No. 14-526), Met kinase is expressed for the purposes of protein production in insect cells (Sf21; S. frugiperda) and subsequent affinity-chromatographic purification as “N-terminal 6His-tagged” recombinant human protein in a baculovirus expression vector.
The test plates used are 96-well Flashplate® microtitre plates from Perkin Elmer (Cat. No. SMP200). The components of the kinase reaction described below are pipetted into the assay plate. The Met kinase and the substrate poly Ala-Glu-Lys-Tyr, (pAGLT, 6:2:5:1), are incubated for 3 hrs at room temperature with radioactively labelled ^33P-ATP in the presence and absence of test substances in a total volume of 100 μl. The reaction is terminated using 150 μl of a 60 mM EDTA solution. After incubation for a further 30 min at room temperature, the supernatants are filtered off with suction, and the wells are washed three times with 200 μl of 0.9% NaCl solution each time. The measurement of the bound radioactivity is carried out by means of a scintillation measuring instrument (Topcount NXT, Perkin-Elmer).
The full value used is the inhibitor-free kinase reaction. This should be approximately in the range 6000-9000 cpm. The pharmacological zero value used is staurosporin in a final concentration of 0.1 mM. The inhibitory values (IC50) are determined using the RS1_MTS program.
• 30 μl of assay buffer • 10 μl of substance to be tested in assay buffer with 10% of DMSO • 10 μl of ATP (final concentration 1 μM cold, 0.35 μCi of ^33P-ATP) • 50 μl of Met kinase/substrate mixture in assay buffer; • (10 ng of enzyme/well, 50 ng of pAGLT/well)
Assay Buffer: • 50 mM HEPES • 3 mM magnesium chloride • 3 μM sodium orthovanadate • 3 mM manganese(II) chloride • 1 mM dithiothreitol (DTT) • pH=7.5 (to be set using sodium hydroxide)
Stop Solution: • 60 mM Titriplex III (EDTA) • ^33P-ATP: Perkin-Elmer; • Met kinase: Upstate, Cat. No. 14-526, Stock 1 μg/10 μl; spec. activity 954 U/mg; • Poly-Ala-Glu-Lys-Tyr, 6:2:5:1: Sigma Cat. No. P1152 In-vivo Tests
Target sequence in this assay (P08581 974-1390 limits assumed): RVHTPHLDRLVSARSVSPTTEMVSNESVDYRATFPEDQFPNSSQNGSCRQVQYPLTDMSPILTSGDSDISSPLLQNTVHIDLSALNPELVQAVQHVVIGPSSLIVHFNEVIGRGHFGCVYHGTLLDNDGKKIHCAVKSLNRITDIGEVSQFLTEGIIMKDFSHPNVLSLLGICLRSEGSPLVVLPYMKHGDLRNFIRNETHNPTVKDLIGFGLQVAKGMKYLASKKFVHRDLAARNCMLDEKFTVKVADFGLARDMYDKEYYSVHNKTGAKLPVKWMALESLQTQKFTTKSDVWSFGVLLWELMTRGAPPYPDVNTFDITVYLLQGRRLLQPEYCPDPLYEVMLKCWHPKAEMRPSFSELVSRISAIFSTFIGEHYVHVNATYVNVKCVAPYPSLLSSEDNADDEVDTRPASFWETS

`O=c1ccc(-c2cc(F)cc(F)c2)nn1Cc1cccc(-c2ncc(-c3cnn(C4CCNCC4)c3)s2)c1` [Compound A1, 6-(3,5-difluorophenyl)-2-{3-[5-(1-piperidin-4-yl-1H-pyrazol-4-yl)thiazol-2-yl]benzyl}-2H-pyridazin-3-one]: the IC50 against Met kinase [1] and against Met kinase [2] was 1 to 100 nM in each case.
In the case of `O=c1ccc(-c2cccc(F)c2)nn1Cc1cccc(-c2ncc(-c3cnn(C4CCNCC4)c3)s2)c1` [Compound A2, 6-(3-fluorophenyl)-2-{3-[5-(1-piperidin-4-yl-1H-pyrazol-4-yl)thiazol-2-yl]benzyl}-2H-pyridazin-3-one], the IC50 on Met kinase [1] and against Met kinase [2] was 1 to 100 nM in each case.
As for `O=c1ccc(-c2cc(F)cc(F)c2)nn1Cc1cccc(-c2ncc(-c3cnn(C4CCNCC4)c3)o2)c1` [Compound A6, 6-(3,5-difluorophenyl)-2-{3-[5-(1-piperidin-4-yl-1H-pyrazol-4-yl)oxazol-2-yl]benzyl}-2H-pyridazin-3-one], the IC50 against Met kinase [1] and on Met kinase [2] was 1 to 100 nM throughout.
Regarding `Cn1cc(-c2nc(-c3cccc(Cn4nc(-c5cc(F)cc(F)c5)ccc4=O)c3)no2)cn1` [Compound A8, 6-(3,5-difluorophenyl)-2-{3-[5-(1-methyl-1H-pyrazol-4-yl)-1,2,4-oxadiazol-3-yl]benzyl}-2H-pyridazin-3-one], the IC50 against Met kinase [1] and against Met kinase [2] was 1 to 100 nM in each case.
For `O=c1ccc(-c2cc(F)cc(F)c2)nn1Cc1cccc(-c2noc(-c3ccco3)n2)c1` [Compound A9, 6-(3,5-difluorophenyl)-2-[3-(5-furan-2-yl-1,2,4-oxadiazol-3-yl)benzyl]-2H-pyridazin-3-one], the IC50 against Met kinase [1] lay in the range of 100 to 10000 nM.
For the compound `Cc1ccc(-c2nc(-c3cccc(Cn4nc(-c5cc(F)cc(F)c5)ccc4=O)c3)no2)cn1` [Compound A10, 6-(3,5-difluorophenyl)-2-{3-[5-(6-methylpyridin-3-yl)-1,2,4-oxadiazol-3-yl]-benzyl}-2H-pyridazin-3-one], the IC50 against Met kinase [1] and against Met kinase [2] was 1 to 100 nM each time.

As a reminder, the IC50 is the point on the concentration scale where inhibition reaches its midpoint.
